These results are taken from patent US20160207906A1, “NOVEL 2,6-DIAMINOPYRIMIDINE DERIVATIVE” (CARNA BIOSCIENCES, INC., priority 2013, published 2016).

The structures appear in SMILES notation. Entries after “also recorded” stand apart in the source; their conditions may differ.

T1 sequence (Q06187 whole entry): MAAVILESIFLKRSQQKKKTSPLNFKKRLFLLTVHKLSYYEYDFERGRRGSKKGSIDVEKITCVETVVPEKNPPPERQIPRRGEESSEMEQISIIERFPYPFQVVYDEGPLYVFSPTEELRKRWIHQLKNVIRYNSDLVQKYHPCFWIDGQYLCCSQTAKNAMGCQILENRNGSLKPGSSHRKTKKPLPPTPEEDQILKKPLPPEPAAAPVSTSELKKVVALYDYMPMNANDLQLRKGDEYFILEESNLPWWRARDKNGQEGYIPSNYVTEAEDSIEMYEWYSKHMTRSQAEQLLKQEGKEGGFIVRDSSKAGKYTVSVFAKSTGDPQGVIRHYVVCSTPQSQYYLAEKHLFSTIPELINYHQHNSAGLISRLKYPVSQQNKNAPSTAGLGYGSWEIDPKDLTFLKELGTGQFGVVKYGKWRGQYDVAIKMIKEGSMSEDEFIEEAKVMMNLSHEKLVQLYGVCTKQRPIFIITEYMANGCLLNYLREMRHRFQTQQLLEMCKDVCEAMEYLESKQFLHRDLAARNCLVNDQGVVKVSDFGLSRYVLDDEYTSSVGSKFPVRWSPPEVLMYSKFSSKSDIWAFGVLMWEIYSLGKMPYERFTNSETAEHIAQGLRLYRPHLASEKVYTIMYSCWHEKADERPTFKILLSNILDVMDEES

One assay concerns anti-IgM antibody BCR stimulation-induced intracellular calcium influx in Ramos cells. Description: Inhibition test on the change of Ramos intracellular calcium ion. Format: cell-based. Conditions: Fluo-8NW, anti-IgM antibody 2.0 μg/mL. How it is done: The intracellular BTK inhibition by the compounds of the present invention was verified by measuring the effects of the compounds of the present invention on “anti-IgM antibody BCR stimulation-induced intracellular calcium influx”.
One day before measurement, the Ramos cells were cultured as being suspended again at a cell density of 1.0×10^6 cells/mL in a fresh growth medium (growth medium as used in Test Example 2), and the cells were recovered next day by centrifugation and washed with RPMI-1640 medium supplemented with 5% penicillin-streptomycin (Nacalai Tesque, Inc.) (Medium 1). These cells were suspended again at a cell density of 2.0×10^6 cells/mL in RPMI-1640 medium supplemented with 1% Ultra Low IgG FBS (GIBCO, #16250) and 5% penicillin-streptomycin (Nacalai Tesque, Inc.) (Medium 2), and thereafter each 100 μL of the cell suspension was added to each well of a Poly Lysine-coated microplate (BD BioCoat™, #356692), centrifuged (700 rpm, 3 minutes) and then incubated for 1 hour in a 5% CO2 incubator at 37° C. […]
The Ramos intracellular calcium ion concentration was measured as a fluorescent intensity of the calcium indicator Fluo-8NW using a microplate reader (SynergyH1) (Ex/Em=490/525 nm). […]
For orientation: Calcium assays in cells follow changes in intracellular calcium, usually with a dye or a luminescent sensor.
With `Nc1cc(-c2cccc(-n3ccc4cc(C5CC5)cc(F)c4c3=O)c2CO)nc(Nc2ccc(N3CCOCC3)cc2)n1` [Example 1, 2-(3-{6-Amino-2-[(4-morpholinophenyl)amino]pyrimidin-4-yl}-2-(hydroxymethyl)phenyl)-6-cyclopropyl-8-fluoroisoquinolin-1 (2H)-one], the “inhibition of anti-IgM antibody BCR stimulation-induced intracellular calcium ion variation (FIG. 1)” value is given as “in a concentration-dependent manner from a low concentration; also recorded: inhibit the flux of calcium into the cells”. Still for that read-out and setting: the result for `Cn1cc(Nc2nc(N)cc(-c3cccc(-n4ccc5cc(C6CC6)cc(F)c5c4=O)c3CO)n2)cn1` [Example 2, 2-(3-{6-Amino-2-[ (1-methyl-1H-pyrazol-4-yl)amino]pyrimidin-4-yl}-2-(hydroxymethyl)phenyl)-6-cyclopropyl-8-fluoroisoquinolin-1 (2H)-one] reads “in a concentration-dependent manner from a low concentration; also recorded: inhibit the flux of calcium into the cells”.

The next assay addresses T1, Dephosphorylated BTK (Homo sapiens, UniProt Q06187).
T1 construct: purchased Carna Biosciences, Inc
Kind of assay: BTK activity inhibition test (mobility shift assay, dephosphorylated BTK). The format is biochemical. Conditions: 200 μM ATP in substrate mixture, 1 hour at room temperature. As for the experimental part: Dephosphorylated BTK was obtained by adding A protein phosphatase (manufactured by New England BioLabs Inc., Code No. P0753S) and MnCl2 at 10 U/μg and 2 mM, respectively to biotinylated BTK protein BTN-BTK (manufactured by Carna Biosciences, Inc.) enzyme solution, reacting the mixture at 4° C. overnight, and removing of A protein phosphatase by anti DYKDDDDK-tag antibody agarose gel chromatography, followed by buffer exchange using a 10DG Desalting Column.
The kinase activity was measured using QuickScout Screening Assist (trade mark) MSA (commercially available kit manufactured by Carna Biosciences, Inc.) by mobility shift assay (MSA) method. The substrate of the kinase reaction was an FITC-labeled SRCtide peptide included in the kit. An assay buffer [20 mM HEPES, 0.01% Triton X-100 (Trade mark), 2 mM dithiothreitol, pH7.5] was used and adjusted at 4 μM substrate, 20 mM MgCl2 and 200 μM ATP to obtain a substrate mixture solution. The enzyme solution was also prepared by diluting the dephosphorylated BTK to 0.6 nM using the assay buffer. The 10 mM solution of the test compound in DMSO was further diluted with DMSO to 10 levels of the concentration (0.00003 mM, 0.0001 mM, 0.0003 mM, 0.001 mM, 0.003 mM, 0.01 mM, 0.03 mM, 0.1 mM, 0.3 mM, 1 mM), each of which was subjected to a 25-fold dilution with the assay buffer to obtain the drug solutions (4% DMSO solutions), 5 μL of the drug solution or a control solution (4% DMSO-assay buffer), 5 μL of the substrate mixture solution, and 10 μL of the enzyme solution were mixed in the wells of a polypropylene 384-well plate and allowed to react at room temperature for 1 hour, and then quenched by adding 60 μL of the termination buffer included in the kit. Subsequently, the quantities of the substrates (S) and the phosphorylated substrate (P) in the reaction solution were measured using LabChip EZ Reader II system (manufactured by Caliper Life Sciences) according to the protocol of the assay kit.
The heights of the peaks of the isolated substrate and the phosphorylated substrate were represented as S and P, respectively, and a blank which contained the assay buffer instead of the enzyme solution was also measured.
The inhibition rate (%) of the test compound was calculated according to the following equation.
Inhibition rate (%)=(1−(C−A)/(B−A))×100
wherein, A, B and C represent P/(P+S) of the blank well, P/(P+S) of the control well and P/(P+S) of the compound-containing well, respectively.
The IC50 value was calculated via a regression analysis of the inhibition rate (%) and the test compound concentration (logarithmic value).
`Nc1cc(-c2cccc(-n3ccc4cc(C5CC5)cc(F)c4c3=O)c2CO)nc(Nc2cnn(C3CC3)c2)n1` [Example 9, 2-(3-{6-Amino-2-[(1-cyclopropyl-1H-pyrazol-4-yl)amino]pyrimidin-4-yl}-2-(hydroxymethyl)phenyl)-6-cyclopropyl-8-fluoroisoquinolin-1(2H)-one]: the IC50 came out at 0.3 nM. Consider `Nc1cc(-c2cccc(-n3ncc4cc(C5CC5)cc(F)c4c3=O)c2CO)nc(Nc2cnn(C3CC3)c2)n1` [Example 21, 2-(3-{6-Amino-2-[(1-cyclo-propyl-1H-pyrazol-4-yl)amino]pyrimidin-4-yl}-2-(hydroxymethyl)phenyl)-6-cyclopropyl-8-fluoro-phthalazin-1(2H)-one], for which the IC50 came to 0.4 nM. For the compound `Cn1cc(Nc2nc(N)cc(-c3cccc(-n4ncc5cc(C6CC6)cc(F)c5c4=O)c3CO)n2)cc1C#N` [Example 24, 4-({4-Amino-6-[3-(6-cyclo-propyl-8-fluoro-1-oxo-phthalazin-2(1H)-yl)-2-(hydroxymethyl)phenyl]pyrimidin-2-yl}amino)-1-methyl-1H-pyrrole-2-carbonitrile], the IC50 came to 0.4 nM. Same read-out and setting: the result for `Nc1cc(-c2cccc(-n3ccc4cc(C5CC5)cc(F)c4c3=O)c2CO)nc(Nc2cn[nH]c2)n1` [Example 18, 2-(3-{2-[(1H-Pyrazol-4-yl)amino]-6-aminopyrimidin-4-yl}-2-(hydroxymethyl)phenyl)-6-cyclopropyl-8-fluoroiso-quinolin-1(2H)-one] reads 0.6 nM.

Turning to `Nc1cc(-c2cccc(-n3ccc4cc(C5CC5)cc(F)c4c3=O)c2CO)nc(Nc2cnn(CC3CC3)c2)n1` [Example 8, 2-[3-(6-Amino-2-{[1-(cyclopropylmethyl)-1H-pyrazol-4-yl]amino}pyrimidin-4-yl)-2-(hydroxymethyl)phenyl]-6-cyclopropyl-8-fluoroisoquinolin-1(2H)-one], the IC50 was found to be 0.3 nM. Regarding `Cn1cc(Nc2nc(N)cc(-c3cccc(-n4ccc5cc(C6(C)CC6)cc(F)c5c4=O)c3CO)n2)cn1` [Example 25, 2-(3-{6-Amino-2-[(1-methyl-1H-pyrazol-4-yl)amino]pyrimidin-4-yl}-2-(hydroxy-methyl)phenyl)-8-fluoro-6-(1-methylcyclopropyl) isoquinolin-1(2H)-one], the concentration for half-maximal inhibition (IC50) was 0.2 nM. On the same count and under the same terms, the result for `N#Cc1cc(Nc2nc(N)cc(-c3cccc(-n4ccc5cc(C6CC6)cc(F)c5c4=O)c3CO)n2)cn1C1CC1` [Example 10, 4-({4-Amino-6-[3-(6-cyclo-propyl-8-fluoro-1-oxoiso-quinolin-2(1H)-yl)-2-(hydroxymethyl)phenyl]pyrimidin-2-yl}amino)-1-cyclopropyl-1H-pyrrole-2-carbonitrile] reads 2.1 nM; that for `Nc1cc(-c2cccc(-n3ccc4cc(C5CC5)cc(F)c4c3=O)c2CO)nc(Nc2ccc(N3CCOCC3)cc2)n1` [Example 1, 2-(3-{6-Amino-2-[(4-morpholinophenyl)amino]pyrimidin-4-yl}-2-(hydroxymethyl)phenyl)-6-cyclopropyl-8-fluoroisoquinolin-1 (2H)-one], 2.1 nM; that for `CN1CCN(c2ccc(Nc3nc(N)cc(-c4cccc(-n5ccc6cc(C7CC7)cc(F)c6c5=O)c4CO)n3)cc2)CC1` [Example 15, 2-[3-(6-Amino-2-{[4-(4-methylpiperazin-1-yl)phenyl]amino}pyrimidin-4-yl)-2-(hydroxymethyl)phenyl]-6-cyclopropyl-8-fluoroisoquinolin-1(2H)-one], 0.4 nM. The same measure, in the same setting: the result for `Cn1cc(Nc2nc(N)cc(-c3cccc(-n4ccc5cc(C6CC6)cc(F)c5c4=O)c3CO)n2)cn1` [Example 2, 2-(3-{6-Amino-2-[ (1-methyl-1H-pyrazol-4-yl)amino]pyrimidin-4-yl}-2-(hydroxymethyl)phenyl)-6-cyclopropyl-8-fluoroisoquinolin-1 (2H)-one] reads 6.4 nM. Same read-out and setting: the result for `CC(=O)c1cc(Nc2nc(N)cc(-c3cccc(-n4ccc5cc(C6CC6)cc(F)c5c4=O)c3CO)n2)cn1C` [Example 17, 2-(3-{2-[(5-Acetyl-1-methyl-1H-pyrrol-3-yl)amino]-6-aminopyrimidin-4-yl}-2-(hydroxymethyl)phenyl)-6-cyclopropyl-8-fluoroiso-quinolin-1(2H)-one] reads 0.8 nM; that for `Cn1cc(Nc2nc(N)cc(-c3ccnc(-n4ccc5cc(C6CC6)cc(F)c5c4=O)c3CO)n2)cn1` [Example 22, 2-(4-{6-Amino-2-[(1-methyl-1H-pyrazol-4-yl)amino]pyrimidin-4-yl}-3-(hydroxy-methyl)pyridin-2-yl)-6-cyclo-propyl-8-fluoroisoquinolin-1(2H)-one], 0.8 nM; that for `Cn1cc(Nc2nc(N)cc(-c3cccc(-n4ncc5cc(C6CC6)cc(F)c5c4=O)c3CO)n2)cn1` [Example 20, 2-(3-{6-Amino-2-[(1-methyl-1H-pyrazol-4-yl)amino]pyrimidin-4-yl}-2-(hydroxy-methyl)phenyl)-6-cyclopropyl-8-fluorophthalazin-1(2H)-one], 0.6 nM.

On to `Cn1cc(Nc2nc(N)cc(-c3cccc(-n4ccc5cc(C6CC6)cc(F)c5c4=O)c3CO)n2)cc1C#N` [Example 5, 4-({4-Amino-6-[3-(6-cyclo-propyl-8-fluoro-1-oxoiso-quinolin-2(1H)-yl)-2-(hydroxymethyl)phenyl]pyrimidin-2-yl}amino)-1-methyl-1H-pyrrole-2-carbonitrile], for which the IC50 worked out at 1.7 nM. On the same count and under the same terms, to `Cn1cc(Nc2nc(N)cc(-c3cccc(-n4ccc5cc(C(C)(C)C)cc(F)c5c4=O)c3CO)n2)cn1` [Example 7, 2-(3-{6-Amino-2-[(1-methyl-1H-pyrazol-4-yl)amino]pyrimidin-4-yl}-2-(hydroxymethyl)phenyl)-6-(tert-butyl)-8-fluoro-isoquinolin-1(2H)-one] belongs 0.3 nM.

In general, IC50 refers to the concentration needed to halve the response being measured.
